SMILES strings stand for the structures. Where two headings read alike, the source gives them in different places.

Holding throughout (assay): Kinase selectivity, P33-radiolabeled assay
Format in all cases: biochemical
What all share (conditions): 10 μM ATP

The target of one test is T1, AXL (Homo sapiens, UniProt P30530).
T1 construct: purchased Reaction Biology Corp
T1 sequence (P30530 26-894): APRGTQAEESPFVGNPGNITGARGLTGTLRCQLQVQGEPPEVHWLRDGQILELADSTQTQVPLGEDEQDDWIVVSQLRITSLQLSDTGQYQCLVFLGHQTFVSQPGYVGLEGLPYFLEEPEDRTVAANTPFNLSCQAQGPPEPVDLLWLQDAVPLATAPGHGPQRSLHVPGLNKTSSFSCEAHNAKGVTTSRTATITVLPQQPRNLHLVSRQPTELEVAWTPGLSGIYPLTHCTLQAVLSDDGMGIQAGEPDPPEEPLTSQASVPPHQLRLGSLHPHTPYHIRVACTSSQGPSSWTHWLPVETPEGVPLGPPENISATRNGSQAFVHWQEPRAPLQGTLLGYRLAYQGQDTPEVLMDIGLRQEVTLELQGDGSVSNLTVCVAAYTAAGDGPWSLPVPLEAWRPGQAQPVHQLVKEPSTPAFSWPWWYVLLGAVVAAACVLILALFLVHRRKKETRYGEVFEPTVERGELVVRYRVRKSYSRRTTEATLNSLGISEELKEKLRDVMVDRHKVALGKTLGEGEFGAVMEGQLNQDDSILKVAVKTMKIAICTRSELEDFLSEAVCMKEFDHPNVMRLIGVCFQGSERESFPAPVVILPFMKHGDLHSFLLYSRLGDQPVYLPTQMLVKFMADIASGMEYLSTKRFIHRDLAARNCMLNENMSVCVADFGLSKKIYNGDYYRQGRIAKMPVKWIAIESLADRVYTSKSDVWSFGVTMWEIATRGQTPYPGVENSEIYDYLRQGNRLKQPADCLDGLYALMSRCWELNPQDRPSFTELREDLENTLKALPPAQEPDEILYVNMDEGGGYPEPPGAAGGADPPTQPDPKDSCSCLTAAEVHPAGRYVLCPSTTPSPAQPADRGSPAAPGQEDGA
Put shortly:
(§1)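 Activity relative to DMSO controls (%) was measured for compound at 10 μM. Assays ran at 10 μM ATP, in duplicate.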

A further test deals with T2, IRAK4 (Homo sapiens, UniProt Q9NWZ3).
T2 construct: purchased Reaction Biology Corp
T2 sequence (Q9NWZ3 1-460): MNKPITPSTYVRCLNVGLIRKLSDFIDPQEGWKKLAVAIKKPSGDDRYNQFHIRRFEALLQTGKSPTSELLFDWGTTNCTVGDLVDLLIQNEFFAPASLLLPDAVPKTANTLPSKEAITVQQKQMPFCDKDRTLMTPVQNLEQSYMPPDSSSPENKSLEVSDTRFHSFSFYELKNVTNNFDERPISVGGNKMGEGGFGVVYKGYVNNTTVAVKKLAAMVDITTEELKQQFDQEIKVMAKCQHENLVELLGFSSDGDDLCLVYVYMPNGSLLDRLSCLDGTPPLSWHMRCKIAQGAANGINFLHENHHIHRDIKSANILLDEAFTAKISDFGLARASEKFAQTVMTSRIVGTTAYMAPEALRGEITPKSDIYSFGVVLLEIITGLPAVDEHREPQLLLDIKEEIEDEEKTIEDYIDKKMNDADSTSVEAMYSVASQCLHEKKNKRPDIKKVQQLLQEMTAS
Put shortly: as §1

A further test has as its target T3, SSTK/TSSK6 (Homo sapiens, UniProt Q9BXA6).
T3 construct: purchased Reaction Biology Corp
Put shortly:
as §1

The target in another test is T4, STK38L/NDR2 (Homo sapiens, UniProt Q9Y2H1).
T4 construct: purchased Reaction Biology Corp
T4 sequence (Q9Y2H1 whole entry): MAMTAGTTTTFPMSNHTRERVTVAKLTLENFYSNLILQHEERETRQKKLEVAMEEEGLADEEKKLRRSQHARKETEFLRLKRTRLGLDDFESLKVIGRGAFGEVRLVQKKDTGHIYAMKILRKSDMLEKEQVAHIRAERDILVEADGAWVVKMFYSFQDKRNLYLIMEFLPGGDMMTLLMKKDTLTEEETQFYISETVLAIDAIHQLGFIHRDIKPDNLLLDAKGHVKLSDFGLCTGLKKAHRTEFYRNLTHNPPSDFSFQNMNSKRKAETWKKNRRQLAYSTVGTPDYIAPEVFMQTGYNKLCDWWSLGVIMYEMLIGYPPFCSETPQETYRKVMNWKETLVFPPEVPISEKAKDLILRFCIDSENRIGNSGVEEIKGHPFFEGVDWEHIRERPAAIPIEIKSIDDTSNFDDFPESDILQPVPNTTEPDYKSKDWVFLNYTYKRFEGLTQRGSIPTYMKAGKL
Put shortly:
as §1

A further test has as its target T5, TAOK3/JIK (Homo sapiens, UniProt Q9H2K8).
T5 construct: purchased Reaction Biology Corp
T5 sequence (Q9H2K8 1-898): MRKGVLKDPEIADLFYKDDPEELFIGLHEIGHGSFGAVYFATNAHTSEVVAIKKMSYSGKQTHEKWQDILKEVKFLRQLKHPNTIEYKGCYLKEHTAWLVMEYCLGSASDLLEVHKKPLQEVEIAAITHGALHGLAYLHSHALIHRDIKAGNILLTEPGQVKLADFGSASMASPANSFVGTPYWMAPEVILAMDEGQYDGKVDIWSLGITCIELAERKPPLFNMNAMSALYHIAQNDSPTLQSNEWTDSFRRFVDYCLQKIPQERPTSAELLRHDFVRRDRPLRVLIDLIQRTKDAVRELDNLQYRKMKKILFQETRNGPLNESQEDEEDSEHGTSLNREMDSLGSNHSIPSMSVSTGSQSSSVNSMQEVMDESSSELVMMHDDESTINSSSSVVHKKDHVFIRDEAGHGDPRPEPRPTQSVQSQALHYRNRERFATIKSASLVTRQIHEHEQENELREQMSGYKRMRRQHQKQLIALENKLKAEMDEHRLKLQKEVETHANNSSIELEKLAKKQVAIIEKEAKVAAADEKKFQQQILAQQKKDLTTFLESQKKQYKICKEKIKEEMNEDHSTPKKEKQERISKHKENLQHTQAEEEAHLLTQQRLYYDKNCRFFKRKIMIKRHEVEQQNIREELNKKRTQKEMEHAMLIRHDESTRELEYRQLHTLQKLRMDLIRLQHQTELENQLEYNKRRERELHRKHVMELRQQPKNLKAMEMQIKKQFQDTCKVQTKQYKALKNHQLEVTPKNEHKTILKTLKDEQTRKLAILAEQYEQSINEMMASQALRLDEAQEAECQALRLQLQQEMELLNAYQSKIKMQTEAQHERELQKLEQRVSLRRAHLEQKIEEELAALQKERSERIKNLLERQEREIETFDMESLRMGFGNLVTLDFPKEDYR
Put shortly:
as §1

Where [1] appears, read: read-out: % Enzyme Activity (relative to DMSO controls) AVG.
Where [2] appears, read: read-out: % Enzyme Activity (relative to DMSO controls) Data 1.
Where [3] appears, read: read-out: % Enzyme Activity (relative to DMSO controls) Data 2.

T3 sequence (Q9BXA6 whole entry): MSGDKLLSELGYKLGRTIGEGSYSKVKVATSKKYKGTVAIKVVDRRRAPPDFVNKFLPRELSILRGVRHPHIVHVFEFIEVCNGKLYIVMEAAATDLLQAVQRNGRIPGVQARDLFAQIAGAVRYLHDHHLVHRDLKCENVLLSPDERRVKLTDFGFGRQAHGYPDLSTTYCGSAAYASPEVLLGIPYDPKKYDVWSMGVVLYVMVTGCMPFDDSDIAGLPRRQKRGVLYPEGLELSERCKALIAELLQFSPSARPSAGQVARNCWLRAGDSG

In the case of `CC(C)(C)C(=O)N1N=CC[C@H]1c1ccccc1` [GSK′963], the remaining activity at 10 µM at AXL (setting [1]) came to 92.9%; on AXL (setting [2]), 91.2%; at AXL (setting [3]), 94.6%; at IRAK4 (setting [1]), 115%; on IRAK4 (setting [2]), 116%; on IRAK4 (setting [3]) it was 114%. Further, the remaining activity at 10 µM on SSTK/TSSK6 (setting [1]) stood at 99%; at SSTK/TSSK6 (setting [2]), 99.3%; at SSTK/TSSK6 (setting [3]), 98.6%; on STK38L/NDR2 (setting [1]), 99.8%; on STK38L/NDR2 (setting [2]), 101%; at STK38L/NDR2 (setting [3]), 98.1%. The remaining activity at 10 µM is 98.2% on TAOK3/JIK (setting [1]), 99.2% on TAOK3/JIK (setting [2]) and 97.3% at TAOK3/JIK (setting [3]).

For the origin of these results see PMC4979471 (Cell Death Discovery, 2015).
